In PubChem BioAssay AID2060484 (Molecular Pharmacology Branch, DTP, NCI, 2025):

Test system: SUM149PT spheroids with HUVEC/MSC, viability
Assay: Anticancer human tumor SUM149PT cell line growth inhibition [GQUAD];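 further: spheroids exposed to drugs for seven days before readout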;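 on viability, T/C: percent viability relative to DMSO vehicle control taken as 100%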
Conditions: for IC50: curve of first compound; for viability, T/C: stronger effect = lower value
Outline: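 Tumor cells were grown as complex spheroids with HUVEC endothelial cells and mesenchymal stem cells as stroma. G-quadruplex stabilizers were combined with targeted agents over half-log dilutions from near the clinical Cmax, or from 10 microM.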

[1] = second compound 0.0316 µM, first compound 0.0316 µM
[2] = second compound 0.0316 µM, first compound 0.1 µM
[3] = second compound 0.0316 µM, first compound 0.316 µM
[4] = second compound 0.0316 µM, first compound 1 µM
[5] = second compound 0.0316 µM, first compound 3.16 µM
[6] = second compound 0.0316 µM, first compound 10 µM
[7] = second compound 0.1 µM, first compound 0.0316 µM
[8] = second compound 0.1 µM, first compound 0.1 µM
[9] = second compound 0.1 µM, first compound 0.316 µM
[10] = second compound 0.1 µM, first compound 1 µM
[11] = second compound 0.1 µM, first compound 3.16 µM
[12] = second compound 0.1 µM, first compound 10 µM
[13] = second compound 0.316 µM, first compound 0.0316 µM
[14] = second compound 0.316 µM, first compound 0.1 µM
[15] = second compound 0.316 µM, first compound 0.316 µM
[16] = second compound 0.316 µM, first compound 1 µM
[17] = second compound 0.316 µM, first compound 3.16 µM
[18] = second compound 0.316 µM, first compound 10 µM
[19] = second compound 1 µM, first compound 0.0316 µM
[20] = second compound 1 µM, first compound 0.1 µM
[21] = second compound 1 µM, first compound 0.316 µM
[22] = second compound 1 µM, first compound 1 µM
[23] = second compound 1 µM, first compound 3.16 µM
[24] = second compound 1 µM, first compound 10 µM
[25] = second compound 3.16 µM, first compound 0.0316 µM
[26] = second compound 3.16 µM, first compound 0.1 µM
[27] = second compound 3.16 µM, first compound 0.316 µM
[28] = second compound 3.16 µM, first compound 1 µM
[29] = second compound 3.16 µM, first compound 3.16 µM
[30] = second compound 3.16 µM, first compound 10 µM
[31] = second compound 10 µM, first compound 0.0316 µM
[32] = second compound 10 µM, first compound 0.1 µM
[33] = second compound 10 µM, first compound 0.316 µM
[34] = second compound 10 µM, first compound 1 µM
[35] = second compound 10 µM, first compound 3.16 µM
[36] = second compound 10 µM, first compound 10 µM

For CC(=O)O[C@H]1C(=O)[C@@]2(C)[C@H]([C@H](OC(=O)c3ccccc3)[C@]3(O)C[C@H](OC(=O)[C@H](O)[C@@H](NC(=O)c4ccccc4)c4ccccc4)C(C)=C1C3(C)C)[C@]1(OC(C)=O)CO[C@@H]1C[C@@H]2O + Cc1cnc(CNC(=O)c2c(=O)c3ccc(N4CCCN(C)CC4)nc3n3c2sc2ccccc23)cn1, the IC50 (second compound 0.0316 µM) was < 31.6 nM, the IC50 (second compound 0.1 µM) was < 31.6 nM and the IC50 (second compound 0.316 µM) was < 31.6 nM. For the same compound, the IC50 (second compound 1 µM) was < 31.6 nM, the IC50 (second compound 3.16 µM) was < 31.6 nM and the IC50 (second compound 10 µM) was < 31.6 nM. For the same compound, the viability, T/C [1] was 25.8%, the viability, T/C [2] was 16.3% and the viability, T/C [3] was 15.5%. For the same compound, the viability, T/C [4] was 9.27%, the viability, T/C [5] was 11.8% and the viability, T/C [6] was 16.7%. The viability, T/C [7] was 26.2%, the viability, T/C [8] was 26.1% and the viability, T/C [9] was 13.4%. The viability, T/C [10] was 13.1%, the viability, T/C [11] was 14.7% and the viability, T/C [12] was 14.5%. It also gave a viability, T/C [13] of 30.5%, a viability, T/C [14] of 30.4% and a viability, T/C [15] of 19%. The viability, T/C [16] was 14.6%, the viability, T/C [17] was 14.8% and the viability, T/C [18] was 19%. The viability, T/C [19] was 30.9%, the viability, T/C [20] was 24.8% and the viability, T/C [21] was 18%. The viability, T/C [22] was 16.1%, the viability, T/C [23] was 15.2% and the viability, T/C [24] was 20.7%. For the same compound, the viability, T/C [25] was 32.2%, the viability, T/C [26] was 24.8% and the viability, T/C [27] was 19.1%. For the same compound, the viability, T/C [28] was 16.9%, the viability, T/C [29] was 18% and the viability, T/C [30] was 19.8%. The viability, T/C [31] was 0.13%, the viability, T/C [32] was 0.61% and the viability, T/C [33] was 1.35%. The viability, T/C [34] was 0.64%, the viability, T/C [35] was 1.28% and the viability, T/C [36] was 1.03%.
For CCCS(=O)(=O)Nc1ccc(F)c(C(=O)c2c[nH]c3ncc(-c4ccc(Cl)cc4)cc23)c1F + Cc1cnc(CNC(=O)c2c(=O)c3ccc(N4CCCN(C)CC4)nc3n3c2sc2ccccc23)cn1, the IC50 (second compound 0.0316 µM) was 5870 nM, the IC50 (second compound 0.1 µM) was 3100 nM and the IC50 (second compound 0.316 µM) was 1450 nM. The IC50 (second compound 1 µM) was < 31.6 nM, the IC50 (second compound 3.16 µM) was < 31.6 nM and the IC50 (second compound 10 µM) was < 31.6 nM. For the same compound, the viability, T/C [1] was 80%, the viability, T/C [2] was 76.5% and the viability, T/C [3] was 96.1%. For the same compound, the viability, T/C [4] was 88.6%, the viability, T/C [5] was 67.5% and the viability, T/C [6] was 34.9%. For the same compound, the viability, T/C [7] was 67.8%, the viability, T/C [8] was 68.3% and the viability, T/C [9] was 79.3%. The viability, T/C [10] was 66.5%, the viability, T/C [11] was 50% and the viability, T/C [12] was 33.2%. For the same compound, the viability, T/C [13] was 51.9%, the viability, T/C [14] was 57.5% and the viability, T/C [15] was 56.5%. For the same compound, the viability, T/C [16] was 52.9%, the viability, T/C [17] was 43.2% and the viability, T/C [18] was 31%. It also gave a viability, T/C [19] of 51.5%, a viability, T/C [20] of 46% and a viability, T/C [21] of 44.6%. It also gave a viability, T/C [22] of 46.6%, a viability, T/C [23] of 37.7% and a viability, T/C [24] of 25.4%. It also gave a viability, T/C [25] of 37.5%, a viability, T/C [26] of 38% and a viability, T/C [27] of 43.1%. The viability, T/C [28] was 38%, the viability, T/C [29] was 37% and the viability, T/C [30] was 23.4%. The viability, T/C [31] was 0.2%, the viability, T/C [32] was 11.8% and the viability, T/C [33] was 0.67%. It also gave a viability, T/C [34] of 11.7%, a viability, T/C [35] of 2.28% and a viability, T/C [36] of 2.88%.
